ChEMBL document CHEMBL2407085, “Structure-Activity Relationships and in Vivo Evaluation of Quinoxaline Derivatives for PET Imaging of β-Amyloid Plaques” (ACS Med Chem Lett, 2013)
Calls of active or inactive are those of the source. The rule behind the calls is not given here.

Key:
Brain [1] = test: Biodistribution in Tg2576 ddY mouse brain at 23.4 to 48.2 kBq, iv measured at 2 to 10 mins by autoradiography; assay type: ADME, organism-based; settings: in vivo
Brain [2] = test: Biodistribution in Tg2576 ddY mouse brain at 23.4 to 48.2 kBq, iv measured at 60 mins by autoradiography; assay type: ADME, organism-based; settings: in vivo, 1 h
[3] = Drug uptake in Alzheimer's disease patient white matter at 370 kBq/100 uL after 1 hr by thioflavin-S based autoradiography; assay type: ADME, tissue-based; settings: human, in vitro
Brain [4] = test: Ratio of drug uptake in ddY mouse brain at 23.4 to 48.2 kBq, iv measured at 2 mins to drug uptake in ddY mouse brain at 23.4 to 48.2 kBq, iv measured at 60 mins; settings: in vivo
[5] = target: T1, Amyloid-beta precursor protein (Homo sapiens, UniProt P05067); test: Binding affinity to beta-amyloid plaque in Alzheimer's disease patient brain cortex after 1 hr by thioflavin-S based autoradiography
Mus musculus [6] = test: Ex vivo binding affinity to beta-amyloid plaque in wild-type mouse brain at 5.5 MBq, iv measured at 1 hr by Thioflavin-S fluorescence microscopy; assay type: functional, organism-based; settings: 5.5 M, tested as the 18F-labelled form
Mus musculus [7] = test: Ex vivo binding affinity to beta-amyloid plaque in Tg2576 mouse brain at 5.5 MBq, iv measured at 1 hr by Thioflavin-S fluorescence microscopy; assay type: functional, organism-based; settings: 5.5 M, tested as the 18F-labelled form
[8] = target: T1, Amyloid-beta precursor protein; test: Displacement of [125I]IMPY from amyloid beta (1 to 42) (unknown origin) after 3 hrs by gamma counting
[9] = target: T1, Amyloid-beta precursor protein; test: Ratio of AV-45 Ki to compound Ki for amyloid beta (1 to 42) (unknown origin) […] by gamma counting
Mus musculus [10] = test: Biodistribution in Tg2576 ddY mouse olfactory tract at 5.5 MBq, iv by autoradiography; assay type: ADME, organism-based; settings: in vivo
Mus musculus [11] = test: Biodistribution in Tg2576 ddY mouse anterior commissure at 5.5 MBq, iv by autoradiography; assay type: ADME, organism-based; settings: in vivo
Mus musculus [12] = test: Biodistribution in Tg2576 ddY mouse external capsule at 5.5 MBq, iv by autoradiography; assay type: ADME, organism-based; settings: in vivo
Mus musculus [13] = test: Biodistribution in Tg2576 ddY mouse corpus callosum at 5.5 MBq, iv by autoradiography; assay type: ADME, organism-based; settings: in vivo

T1 sequence (P05067 whole entry): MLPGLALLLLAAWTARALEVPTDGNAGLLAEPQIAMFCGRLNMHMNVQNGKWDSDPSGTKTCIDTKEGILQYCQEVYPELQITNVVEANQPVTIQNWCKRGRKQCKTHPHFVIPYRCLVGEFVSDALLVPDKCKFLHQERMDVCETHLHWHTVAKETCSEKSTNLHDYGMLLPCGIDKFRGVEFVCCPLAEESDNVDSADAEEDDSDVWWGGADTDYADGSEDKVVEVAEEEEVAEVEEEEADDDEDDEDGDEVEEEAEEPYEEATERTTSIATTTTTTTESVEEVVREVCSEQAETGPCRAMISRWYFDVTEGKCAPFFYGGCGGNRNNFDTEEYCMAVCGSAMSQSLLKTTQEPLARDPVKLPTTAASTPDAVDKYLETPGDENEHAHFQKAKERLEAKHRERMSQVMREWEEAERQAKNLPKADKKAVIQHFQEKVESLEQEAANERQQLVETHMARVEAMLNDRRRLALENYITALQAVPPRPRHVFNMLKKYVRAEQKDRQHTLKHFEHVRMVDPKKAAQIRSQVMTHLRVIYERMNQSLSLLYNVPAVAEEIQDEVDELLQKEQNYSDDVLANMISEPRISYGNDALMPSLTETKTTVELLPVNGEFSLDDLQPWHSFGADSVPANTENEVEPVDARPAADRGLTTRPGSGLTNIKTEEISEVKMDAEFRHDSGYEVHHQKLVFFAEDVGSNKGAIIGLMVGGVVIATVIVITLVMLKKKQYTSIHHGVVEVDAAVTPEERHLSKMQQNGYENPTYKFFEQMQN

Row | Drug uptake (Brain [1]) | Drug uptake [3] | Ratio (Brain [4]) | SMILES | Drug uptake (Brain [2]) | Ki [5] | further results
1 | 4.69 % ID/g | Active | 2.36 | CNc1ccc(-c2cnc3ccc(OCC[18F])cc3n2)cc1 | 1.48 % ID/g | > 242 nM | 
2 | 4.69 % ID/g | Active | 2.36 | Nc1ccc(-c2cnc3ccc(OCC[18F])cc3n2)cc1 | 1.48 % ID/g | > 242 nM | 
3 | Active |  | 3.8 | CNc1ccc(/C=C/c2ccc(OCCOCCOCC[18F])nc2)cc1 [FLORBETAPIR F 18] |  |  | 

Further lines, the compound ahead of its results:

Row | SMILES | Drug uptake (Brain [1]) | Drug uptake [3] | Ratio (Brain [4]) | Drug uptake (Brain [2]) | Ki [5] | further results
4 | Nc1ccc(-c2cnc3cc(OCC[18F])ccc3n2)cc1 | 4.69 % ID/g | Active | 2.36 | 1.48 % ID/g | > 242 nM | 
5 | CN(C)c1ccc(-c2cnc3ccc(OCC[18F])cc3n2)cc1 | 4.69 % ID/g |  | 3.91 | 1.48 % ID/g | 111 nM | 
6 | CN(C)c1ccc(-c2cnc3cc(OCCF)ccc3n2)cc1 |  |  |  |  |  | Activity (Mus musculus [6]): Active; Activity (Mus musculus [7]): Active; Ki [8]: 0.895 nM; Ratio Ki [9]: 10
7 | CN(C)c1ccc(-c2cnc3cc(OCC[18F])ccc3n2)cc1 | 4.69 % ID/g | Not Active | 2.36 | 1.48 % ID/g | 0.895 nM | Drug uptake (Mus musculus [10]): Active; Drug uptake (Mus musculus [11]): Active; Drug uptake (Mus musculus [12]): Active; Drug uptake (Mus musculus [13]): Active
8 | CNc1ccc(/C=C/c2ccc(OCCOCCOCCF)nc2)cc1 [FLORBETAPIR] |  |  |  |  |  | Ki [8]: 12.8 nM
9 | CNc1ccc(-c2cnc3cc(OCC[18F])ccc3n2)cc1 | 4.69 % ID/g | Not Active | 2.36 | 1.48 % ID/g | 15.7 nM | 
